Experiments:
[1] = at typical operating pressures and temperatures; cited from earlier work
[2] = Solubility of APIs in PVPVA (thin layer dried on glass slide, optical microscopy); assay type: physicochemical; settings: % by mass in PVPVA; bright-field and cross-polarized optical microscopy
Experimental: The effect of API loading on PVPVA foams was studied next. To make API-laden polymer foams, a model API was added to the polymer before foaming. Clotrimazole and cholesterol were used in this example as model APIs. PVPVA was loaded with the API at concentrations ranging from 0% by mass to 30% by mass, as described above. The solubility of APIs in PVPVA was first tested by dissolving both the API and the polymer in a solvent, then spreading a thin layer on a glass slide to dry. […] These crystals were visible under bright-field and cross-polarized optical microscopy. […] Solid solutions of clotrimazole were obtained at up to 20% loading.

CC(C)CCC[C@@H](C)[C@H]1CC[C@H]2[C@@H]3CC=C4C[C@@H](O)CC[C@]4(C)[C@H]3CC[C@]12C [cholesterol]
solubility in CO2 [1]: about 2 g/l
API loading in PVPVA at which crystals precipitate [2]: about 30%

From patent US20130202657A1, “FOAMS OR PARTICLES FOR APPLICATIONS SUCH AS DRUG DELIVERY” (BASF SE, priority 2010, published 2013)
